The values that follow are results of earlier work, collected in US20240173460A1, “STORAGE SOLUTIONS FOR MAINTAINING OF AXONAL VIABILITY” (Board of Regents, The University of Texas System, priority 2022, published 2024).

Each structure is given as a SMILES string.

For `[Cl-].[K+]` [Potassium Chloride], the solubility in water result is recorded as “freely soluble in water”.
